Experimental data as given in patent US6667161B1, “Chromogenic substrates of sialidase of bacterial, viral, protozoa, and vertebrate origin and methods of making and using the same” (Ibbex, Inc., priority 1997, dated 2003).

How the values were obtained:
[1] = molecular target: purified recombinant bacterial sialidase from Salmonella T. (Salmonella typhimurium, UniProt P29768); assay: Biochemical evaluation of chromogenic substrate with bacterial sialidase; details: substrate ca. 0.7 mM, 30 minutes
[2] = molecular target: viral sialidase from whole influenza virus A1PR/8/34 (Influenza A virus, UniProt P03468); assay: Biochemical evaluation of chromogenic substrate with viral sialidase; details: substrate ca. 0.7 mM, 30 minutes
Procedure: Biochemical evaluation for the chromogenic product of viral sialidase substrate compounds. Sialidase can be obtained from, for example, purified recombinant bacterial sialidase from Salmonella T., whole influenza virus, or culture medium containing secreted human sialidase from the 2CFSME cell line. The sialidase preparation is added to a buffer of sodium acetate (0.05 to 0.5 M; pH 5.0-6.0), and the substrate compound is provided at about 0.2-1.0 mM concentration. It should be noted that numerous other examples of buffer solution may be used, including organic acids such as citrate buffers, for example, as well as inorganic buffers, including potassium, sodium, calcium, and other such salts thereof. […] The color change is readily visible. The color change can be quantitated spectrophotometrically by measuring the light absorption of the reaction mixture. […]
E. Biochemical Evaluation of a Chromogenic Substrate Product with Bacterial Sialidase and with Viral Sialidase. […] The reaction progress was quantitated by measuring the light absorption of the reaction mixture. The light absorption was measured with a spectrophotometer at 517 nm with a 1 cm path cell. In the experiment conducted with bacterial sialidase, the absorbance was measured as 2.448. In the experiment conducted with viral sialidase, the absorbance was measured as 1.168. […]

[3] = pH 6.0, 37° C., after addition of sodium hydroxide (pH>11.0)

Chain of viral sialidase from whole influenza virus A1PR/8/34 (P03468 whole entry, looked up): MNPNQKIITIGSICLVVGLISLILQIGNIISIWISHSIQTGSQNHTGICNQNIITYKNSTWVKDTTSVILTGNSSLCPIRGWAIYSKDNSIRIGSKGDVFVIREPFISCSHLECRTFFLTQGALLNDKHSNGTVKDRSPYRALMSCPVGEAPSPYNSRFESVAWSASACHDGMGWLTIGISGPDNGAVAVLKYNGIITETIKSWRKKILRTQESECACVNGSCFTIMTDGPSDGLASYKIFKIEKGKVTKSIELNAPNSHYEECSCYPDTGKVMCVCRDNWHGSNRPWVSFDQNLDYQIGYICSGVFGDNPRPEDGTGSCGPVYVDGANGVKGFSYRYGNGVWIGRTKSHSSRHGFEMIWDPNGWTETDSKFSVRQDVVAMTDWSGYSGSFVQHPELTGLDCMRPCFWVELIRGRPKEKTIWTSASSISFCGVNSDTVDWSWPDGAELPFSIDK
Chain of purified recombinant bacterial sialidase from Salmonella T. (P29768 whole entry): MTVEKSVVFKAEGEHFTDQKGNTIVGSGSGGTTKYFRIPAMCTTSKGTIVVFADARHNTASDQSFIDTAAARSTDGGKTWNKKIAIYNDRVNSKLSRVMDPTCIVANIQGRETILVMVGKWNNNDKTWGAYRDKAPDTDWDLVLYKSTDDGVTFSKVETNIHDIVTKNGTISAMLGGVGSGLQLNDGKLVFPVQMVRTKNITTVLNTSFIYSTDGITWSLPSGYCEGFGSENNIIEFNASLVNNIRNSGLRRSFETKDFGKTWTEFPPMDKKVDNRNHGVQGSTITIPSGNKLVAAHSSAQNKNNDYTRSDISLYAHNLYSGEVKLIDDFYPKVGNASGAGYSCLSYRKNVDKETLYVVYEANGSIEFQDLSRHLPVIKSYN

COC(=O)C1(Oc2cc(C)c(C3(c4cc(C(C)C)c(O)cc4C)OC(=O)c4ccccc43)cc2C(C)C)CC(OC)C(NC(C)=O)C([C@H](N)[C@H](O)CO)O1 (stereo partly shown) [Compound 9c]
absorbance (light absorption of the reaction mixture) ([1]; 517 nm, 1 cm path cell, potassium acetate 0.5 M pH 6.0, 37° C., then sodium hydroxide 1.0 M): 2.448
visible color change [1, 3]: color change to blue was readily visible
absorbance (light absorption of the reaction mixture) ([2]; 517 nm, 1 cm path cell, potassium acetate 0.5 M pH 6.0, 37° C., then sodium hydroxide 1.0 M, reaction not allowed to proceed to completion): 1.168
visible color change [2, 3]: color change to blue was readily visible
